{
  "source": "patent US20020137929A1",
  "about": "“1 - (3-heterocyclylphenyl) isothiourea, -isourea, -guanidine and -amidine herbicidal agents” (Intellectual Property Department, BASF Aktiengesellschaft, priority 1998, published 2002)",
  "key": {"[1]": {"test_system": "CHEAL (Lambsquarters, Common)", "experiment": "Postemergence herbicidal evaluation", "format": "in vivo, Chenopodium album", "conditions": "postemergence", "procedure,_shortened": "(§1)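 Rate range approx. 0.0156–0.500 kg/ha. Foliar application at 40 psi to ~2-week seedlings; surfactant 0.5% TWEEN 20 in 50/50 acetone/water. Evaluation 4–5 wk post-treatment by 0–9 visual injury score, means of replicate tests.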"}, "[2]": {"test_system": "ECHCG (Barnyardgrass)", "experiment": "Postemergence herbicidal evaluation", "format": "in vivo, Echinochloa crus-galli", "conditions": "postemergence", "procedure,_shortened": "as §1"}, "[3]": {"test_system": "SAGPY (Arrowhead (Pygmaea))", "experiment": "Preemergence weed control under flooded paddy conditions", "format": "in vivo, Sagittaria pygmaea", "conditions": "rated 3-4 weeks after treatment", "procedure,_shortened": "(§2)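 Seeds or propagules sown in silt loam kept flooded 1.5-3 cm; compounds in 50/50 acetone/water pipetted into flood water at about 0.0313 to 0.500 kg/ha. Greenhouse; visual 0-9 rating versus untreated control 3-4 weeks after treatment.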"}, "[4]": {"test_system": "GALAP (Galium)", "experiment": "Postemergence herbicidal evaluation", "format": "in vivo, Galium aparine", "conditions": "postemergence", "procedure,_shortened": "as §1"}, "[5]": {"test_system": "GLXMAW (Soybean, Williams)", "experiment": "Postemergence herbicidal evaluation", "format": "in vivo, Glycine max, (L.) Merr. cv Williams", "conditions": "postemergence", "procedure,_shortened": "as §1"}, "[6]": {"test_system": "AMBEL (Ragweed, Common)", "experiment": "Postemergence herbicidal evaluation", "format": "in vivo, Ambrosia artemisifolia", "conditions": "postemergence", "procedure,_shortened": "as §1"}, "[7]": {"test_system": "ORYSAT (Rice, Tebonnet)", "experiment": "Postemergence herbicidal evaluation", "format": "in vivo, Oryza sativa, (L.) Tebonnet", "conditions": "postemergence", "procedure,_shortened": "as §1"}, "[8]": {"test_system": "CASOB (Sicklepod)", "experiment": "Preemergence herbicidal evaluation", "format": "in vivo, Cassia obtusifolia", "conditions": "rated 4-5 weeks after treatment", "procedure,_shortened": "(§3)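 Scores (0–9) reflect visual comparison with control plants for stand, vigor, malformation, size and chlorosis. Compound was applied to the soil after sowing, before emergence, as an aqueous acetone spray (about 0.0156–0.500 kg/ha), and cups were kept in a greenhouse for 4–5 weeks.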"}, "[9]": {"test_system": "SETVI (Foxtail, Green)", "experiment": "Postemergence herbicidal evaluation", "format": "in vivo, Setaria viridis", "conditions": "postemergence", "procedure,_shortened": "as §1"}, "[10]": {"test_system": "CYPIR (Rice Flatsedge)", "experiment": "Preemergence weed control under flooded paddy conditions", "format": "in vivo, Cyperus iria", "conditions": "rated 3-4 weeks after treatment", "procedure,_shortened": "as §2"}, "[11]": {"test_system": "CYPSE (Flatsedge)", "experiment": "Preemergence weed control under flooded paddy conditions", "format": "in vivo, Cyperus serotinus", "conditions": "rated 3-4 weeks after treatment", "procedure,_shortened": "as §2"}, "[12]": {"test_system": "ZEAMX (Corn, Field)", "experiment": "Preemergence herbicidal evaluation", "format": "in vivo, Zea mays", "conditions": "rated 4-5 weeks after treatment", "procedure,_shortened": "as §3"}, "[13]": {"test_system": "GALAP (Galium)", "experiment": "Preemergence herbicidal evaluation", "format": "in vivo, Galium aparine", "conditions": "rated 4-5 weeks after treatment", "procedure,_shortened": "as §3"}, "[14]": {"test_system": "CASOB (Sicklepod)", "experiment": "Postemergence herbicidal evaluation", "format": "in vivo, Cassia obtusifolia", "conditions": "postemergence", "procedure,_shortened": "as §1"}, "[15]": {"test_system": "CYPSE (Flatsedge)", "experiment": "Postemergence weed control under flooded paddy conditions", "format": "in vivo, Cyperus serotinus", "conditions": "postemergence weeds, rated 3 to 4 weeks after treatment", "procedure,_shortened": "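With weeds 3 to 5 cm tall and rice at the 1.5 to 2.5 leaf stage, containers were flooded and water held 1.5 to 3 cm above soil. Compounds in 50/50 v/v aqueous/acetone went into the flood water at about 0.0313 to 0.500 kg/ha a.i. Effects were visually rated 0–9 against controls after three to four weeks in the greenhouse.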"}},
  "data": [
    {"molecule": "C#CCOC(=O)CC1SC(=Nc2cc(-n3c(=O)cc(C(F)(F)F)n(C)c3=O)c(F)cc2Cl)N(CC=C)C1=O", "note": "(stereo not shown) [Compound 67, 2-Propynyl 3-allyl-2-{{2-chloro-5-[3,6-dihydro-3-methyl-2,6-dioxo-4-(trifluoromethyl)-1(2H)-pyrimidinyl]-4-fluorophenyl}imino}-4-oxo-5-thiazolidineacetate]", "values": [
      {"measurement": "CHEAL herbicidal rating", "setting": "[1]; rate 0.0158 kg/ha", "result": 4.0},
      {"measurement": "CHEAL herbicidal rating", "setting": "[1]; rate 0.0315 kg/ha", "result": 6.0},
      {"measurement": "CHEAL herbicidal rating", "setting": "[1]; rate 0.0630 kg/ha", "result": 9.0},
      {"measurement": "ECHCG herbicidal rating", "setting": "[2]; rate 0.0158 kg/ha", "result": 3.0},
      {"measurement": "ECHCG herbicidal rating", "setting": "[2]; rate 0.0315 kg/ha", "result": 6.0},
      {"measurement": "ECHCG herbicidal rating", "setting": "[2]; rate 0.0630 kg/ha", "result": 7.0},
      {"measurement": "SAGPY herbicidal effect rating", "setting": "[3]; 0.0313 kg/ha", "result": 0.0},
      {"measurement": "SAGPY herbicidal effect rating", "setting": "[3]; 0.0625 kg/ha", "result": 4.0},
      {"measurement": "SAGPY herbicidal effect rating", "setting": "[3]; 0.1250 kg/ha", "result": 4.0},
      {"measurement": "SAGPY herbicidal effect rating", "setting": "[3]; 0.2500 kg/ha", "result": 6.0},
      {"measurement": "GALAP herbicidal rating", "setting": "[4]; rate 0.0158 kg/ha", "result": 2.9},
      {"measurement": "GALAP herbicidal rating", "setting": "[4]; rate 0.0315 kg/ha", "result": 6.0},
      {"measurement": "GALAP herbicidal rating", "setting": "[4]; rate 0.0630 kg/ha", "result": 5.0},
      {"measurement": "GLXMAW herbicidal rating", "setting": "[5]; rate 0.0158 kg/ha", "result": 8.5},
      {"measurement": "GLXMAW herbicidal rating", "setting": "[5]; rate 0.0315 kg/ha", "result": 7.5},
      {"measurement": "GLXMAW herbicidal rating", "setting": "[5]; rate 0.0630 kg/ha", "result": 7.5},
      {"measurement": "AMBEL herbicidal rating", "setting": "[6]; rate 0.0158 kg/ha", "result": 6.0},
      {"measurement": "AMBEL herbicidal rating", "setting": "[6]; rate 0.0315 kg/ha", "result": 7.0},
      {"measurement": "AMBEL herbicidal rating", "setting": "[6]; rate 0.0630 kg/ha", "result": 7.0},
      {"measurement": "ORYSAT herbicidal rating", "setting": "[7]; rate 0.0158 kg/ha", "result": 4.0},
      {"measurement": "ORYSAT herbicidal rating", "setting": "[7]; rate 0.0315 kg/ha", "result": 4.5},
      {"measurement": "ORYSAT herbicidal rating", "setting": "[7]; rate 0.0630 kg/ha", "result": 5.0},
      {"measurement": "Preemergence herbicidal rating CASOB", "setting": "[8]; rate 0.0156 kg/ha", "result": 0.0},
      {"measurement": "Preemergence herbicidal rating CASOB", "setting": "[8]; rate 0.0313 kg/ha", "result": 0.0},
      {"measurement": "Preemergence herbicidal rating CASOB", "setting": "[8]; rate 0.0625 kg/ha", "result": 0.0},
      {"measurement": "Preemergence herbicidal rating CASOB", "setting": "[8]; rate 0.1250 kg/ha", "result": 2.0},
      {"measurement": "Preemergence herbicidal rating CASOB", "setting": "[8]; rate 0.2500 kg/ha", "result": 2.0},
      {"measurement": "SETVI herbicidal rating", "setting": "[9]; rate 0.0158 kg/ha", "result": 9.0},
      {"measurement": "SETVI herbicidal rating", "setting": "[9]; rate 0.0315 kg/ha", "result": 9.0},
      {"measurement": "SETVI herbicidal rating", "setting": "[9]; rate 0.0630 kg/ha", "result": 9.0},
      {"measurement": "CYPIR herbicidal effect rating", "setting": "[10]; 0.0313 kg/ha", "result": 5.0},
      {"measurement": "CYPIR herbicidal effect rating", "setting": "[10]; 0.0625 kg/ha", "result": 5.0},
      {"measurement": "CYPIR herbicidal effect rating", "setting": "[10]; 0.1250 kg/ha", "result": 5.0},
      {"measurement": "CYPIR herbicidal effect rating", "setting": "[10]; 0.2500 kg/ha", "result": 8.0},
      {"measurement": "CYPSE herbicidal effect rating", "setting": "[11]; 0.0313 kg/ha", "result": 0.0},
      {"measurement": "CYPSE herbicidal effect rating", "setting": "[11]; 0.0625 kg/ha", "result": 3.0},
      {"measurement": "CYPSE herbicidal effect rating", "setting": "[11]; 0.1250 kg/ha", "result": 3.0},
      {"measurement": "CYPSE herbicidal effect rating", "setting": "[11]; 0.2500 kg/ha", "result": 3.0},
      {"measurement": "Preemergence herbicidal rating ZEAMX", "setting": "[12]; rate 0.0156 kg/ha", "result": 0.0},
      {"measurement": "Preemergence herbicidal rating ZEAMX", "setting": "[12]; rate 0.0313 kg/ha", "result": 0.0},
      {"measurement": "Preemergence herbicidal rating ZEAMX", "setting": "[12]; rate 0.0625 kg/ha", "result": 1.0},
      {"measurement": "Preemergence herbicidal rating ZEAMX", "setting": "[12]; rate 0.1250 kg/ha", "result": 1.0},
      {"measurement": "Preemergence herbicidal rating ZEAMX", "setting": "[12]; rate 0.2500 kg/ha", "result": 1.0},
      {"measurement": "Preemergence herbicidal rating GALAP", "setting": "[13]; rate 0.0156 kg/ha", "result": 0.0},
      {"measurement": "Preemergence herbicidal rating GALAP", "setting": "[13]; rate 0.0313 kg/ha", "result": 0.0},
      {"measurement": "Preemergence herbicidal rating GALAP", "setting": "[13]; rate 0.0625 kg/ha", "result": 0.0},
      {"measurement": "Preemergence herbicidal rating GALAP", "setting": "[13]; rate 0.1250 kg/ha", "result": 1.0},
      {"measurement": "Preemergence herbicidal rating GALAP", "setting": "[13]; rate 0.2500 kg/ha", "result": 0.0},
      {"measurement": "CASOB herbicidal rating", "setting": "[14]; rate 0.0158 kg/ha", "result": 0.0},
      {"measurement": "CASOB herbicidal rating", "setting": "[14]; rate 0.0315 kg/ha", "result": 2.0},
      {"measurement": "CASOB herbicidal rating", "setting": "[14]; rate 0.0630 kg/ha", "result": 3.0},
      {"measurement": "Herbicidal rating CYPSE", "setting": "[15]; Rate 0.0313 kg/ha", "result": 0.0},
      {"measurement": "Herbicidal rating CYPSE", "setting": "[15]; Rate 0.0625 kg/ha", "result": 3.0},
      {"measurement": "Herbicidal rating CYPSE", "setting": "[15]; Rate 0.1250 kg/ha", "result": 3.0},
      {"measurement": "Herbicidal rating CYPSE", "setting": "[15]; Rate 0.2500 kg/ha", "result": 3.0}
    ]}
  ]
}
